Source: US20080027052A1, “METHODS FOR TREATING CYSTIC KIDNEY DISEASE” (priority 2006, published 2008)

What was measured:
Format in all cases: in vivo
male Cy/+ rat [1] = experiment: Kidney assessment (cyst volume, fibrosis, kidney weight, histology) in male Cy/+ rats; details: for Cyst Vol / Cyst Vol as a % of BW / Total Kidney weight: at sacrifice; for Cyst Vol / Cyst Vol as a % of BW / Total Kidney weight / Fibrosis Score: n = 7-8, mean ± SD; for Histologic appearance of the cysts (FIG. 7): representative kidney sections, compared with control cystic animals; for Fibrosis Score: semi-quantitative score 0-4+, picrosirius red
Excerpt: The Cy rat is a Han:SPRD rat with a spontaneous genetic mutation called Cy. These animals develop progressive kidney disease due to the formation of multiple kidney tubule cysts that arise from both the proximal and later the distal tubule. The colony of rats has been maintained through successive breeding of two heterozygous Cy/+ rats. This is an autosomal dominant gene, such that at birth, ¼ of the animals are normal, ½ are heterozygotes (Cy/+) and ¼ are homozygotes (Cy/Cy). Homozygotes (Cy/Cy) of either sex are easily identified after approximately 10 days of age by abdominal palpation and elevations in blood urea nitrogen (BUN), a finding used to verify parental heterozygosity for PKD. Homozygous Cy/Cy rats develop massively enlarged kidneys and severe azotemia and die by 4 weeks of age. Heterozygote male animals develop progressive chronic kidney disease (CKD) with rise in blood urea nitrogen (BUN) by 10 weeks and death from uremia by 40-50 weeks. Heterozygote female animals develop progressive CKD with rise in BUN not detected until 20 weeks, with death at 80 weeks. […] Average food intake was 50 g/kg/day. At the time of sacrifice, rats were anesthetized with sodium pentobarbitol ([…], i.p.) and weighed. Blood was obtained for determination of serum creatinine, BUN, intact PTH, Ca and PO4. The left kidney was removed, weighed and frozen in liquid nitrogen for subsequent batch analyses. The right kidney was perfusion fixed with 4% paraformaldehyde in phosphate buffer (ph 7.4). The tissue was embedded in paraffin for histological studies. Cyst volume density was determined by point count stereology from randomly selected fields from hematoxylin and cosin (H&E) stained slides. Fibrosis was graded semi-quantitatively (scored 0-4+) from picrosirius red stained slides. The reviewer was blinded to the treatment group. Both measure were also standardized by body weight (for cyst volume) or kidney weight (for fibrosis). Four micron transverse tissue section of the kidney, including cortex and medulla, was stained with hematoxylin-cosin. Five fields/sections, from cortex through outer medulla, were evaluated for the degree of cystic change. Other sections were stained with picrosirius red for the evaluation of fibrosis. Fibrosis was scored (0-4+) for the relative amount of collagen within the interstitium from picrosirius red staining of collagen fibers. These assessments are the standard methods used to assess response to therapy in animal models of kidney disease (Gattone et al, Nature Medicine 9: 1323-6, 2003). Cy−/+ (cystic) male rats were assigned to one of four treatment groups (Table 5) and were phenotyped (by BUN) at 10 weeks and again at 20 weeks to ensure animals were cystic. […] Comparator groups included Compound A with calcium in the drinking water versus calcium alone. These comparator groups allow differentiation of the effects of changes in PTH and calcium from a direct action of the calcimimetic. FIG. 1 schematically represents the study design. At 10 weeks, animals were phenotyped. At 20 weeks, animals were started on the treatment arm. Half the animals were sacrificed at 34 weeks, half the animals were sacrificed 38 weeks. At each time point, samples from 8 animals were perfusion fixed with paraformaldehyde for CT scan, bone histology and aorta histology, samples from 8 animals were saline perfused for HCl extraction to determine calcium and phosphate content, and blood samples from 16 animals were collected for blood tests (PTH, calcium, phosphorus, BUN). Animals in the paraformaldehyde fixation group received tetracycline administration four and one week prior to sacrifice to label the bone for morphometric analyses. For the purpose of this application, only the laboratory and kidney end points will be presented. All data was analyzed by a statistician. The BUN was analyzed only at week 20 and end point (week 34 or 38) and was analyzed by ANCOVA adjusting for baseline (week 20) values. […]

male Cy/+ rat [2] = experiment: Blood laboratory values in male Cy/+ rats treated from week 20; details: for BUN / Calcium / Phosphorus / PTH: 38 week time point, treatment from week 20; for PTH: Compound A 0.05% w/w in chow, 3% Ca gluconate in water, mean ± SD
Excerpt: The Cy rat is a Han:SPRD rat with a spontaneous genetic mutation called Cy. These animals develop progressive kidney disease due to the formation of multiple kidney tubule cysts that arise from both the proximal and later the distal tubule. The colony of rats has been maintained through successive breeding of two heterozygous Cy/+ rats. This is an autosomal dominant gene, such that at birth, ¼ of the animals are normal, ½ are heterozygotes (Cy/+) and ¼ are homozygotes (Cy/Cy). Homozygotes (Cy/Cy) of either sex are easily identified after approximately 10 days of age by abdominal palpation and elevations in blood urea nitrogen (BUN), a finding used to verify parental heterozygosity for PKD. Homozygous Cy/Cy rats develop massively enlarged kidneys and severe azotemia and die by 4 weeks of age. Heterozygote male animals develop progressive chronic kidney disease (CKD) with rise in blood urea nitrogen (BUN) by 10 weeks and death from uremia by 40-50 weeks. Heterozygote female animals develop progressive CKD with rise in BUN not detected until 20 weeks, with death at 80 weeks. […] Average food intake was 50 g/kg/day. At the time of sacrifice, rats were anesthetized with sodium pentobarbitol ([…], i.p.) and weighed. Blood was obtained for determination of serum creatinine, BUN, intact PTH, Ca and PO4. The left kidney was removed, weighed and frozen in liquid nitrogen for subsequent batch analyses. The right kidney was perfusion fixed with 4% paraformaldehyde in phosphate buffer (ph 7.4). The tissue was embedded in paraffin for histological studies. Cyst volume density was determined by point count stereology from randomly selected fields from hematoxylin and cosin (H&E) stained slides. Fibrosis was graded semi-quantitatively (scored 0-4+) from picrosirius red stained slides. The reviewer was blinded to the treatment group. Both measure were also standardized by body weight (for cyst volume) or kidney weight (for fibrosis). Plasma urea and creatinine were determined using colorimetric assays (Urea-Sigma 640 creatinine kit). Intact PTH was determined by ELISA; Alpacoa, and Ca and PO4 were done with using colorimeteric analyses (Sigma). Cy−/+ (cystic) male rats were assigned to one of four treatment groups (Table 5) and were phenotyped (by BUN) at 10 weeks and again at 20 weeks to ensure animals were cystic. […] Comparator groups included Compound A with calcium in the drinking water versus calcium alone. These comparator groups allow differentiation of the effects of changes in PTH and calcium from a direct action of the calcimimetic. FIG. 1 schematically represents the study design. At 10 weeks, animals were phenotyped. At 20 weeks, animals were started on the treatment arm. Half the animals were sacrificed at 34 weeks, half the animals were sacrificed 38 weeks. At each time point, samples from 8 animals were perfusion fixed with paraformaldehyde for CT scan, bone histology and aorta histology, samples from 8 animals were saline perfused for HCl extraction to determine calcium and phosphate content, and blood samples from 16 animals were collected for blood tests (PTH, calcium, phosphorus, BUN). Animals in the paraformaldehyde fixation group received tetracycline administration four and one week prior to sacrifice to label the bone for morphometric analyses. For the purpose of this application, only the laboratory and kidney end points will be presented. All data was analyzed by a statistician. The BUN was analyzed only at week 20 and end point (week 34 or 38) and was analyzed by ANCOVA adjusting for baseline (week 20) values. The PTH, calcium, and phosphorus were analyzed at baseline (week 20), a mid point, and end point (week 34, 38). These values were compared by a mixed model adjusting for baseline values and time point. The kidney assessments were only measured at end point at the time of sacrifice, and therefore the measures were compared by ANCOVA and within group comparisons.

male Cy/+ rat [3] = experiment: Kidney assessment (cyst volume, fibrosis, kidney weight, histology) in male Cy/+ rats; details: ANOVA with post group comparisons, all p<0.01, HCl

Row | SMILES | Cyst Vol (male Cy/+ rat [1]) [cc] | Cyst Vol as a % of BW (male Cy/+ rat [1]) [%] | Total Kidney weight (male Cy/+ rat [1]) [g] | Histologic appearance of the cysts (FIG. 7) (male Cy/+ rat [1]) | Fibrosis Score (male Cy/+ rat [1]) | BUN (male Cy/+ rat [2]) [mg/dL] | Calcium (male Cy/+ rat [2]) [mg/dL] | Phosphorus (male Cy/+ rat [2]) [mg/dL] | PTH (male Cy/+ rat [2]) [pg/mL] | Change in BUN (week 20 to week 38) = Delta BUN (male Cy/+ rat [2]) [mg/dL] | Cyst volume and fibrosis compared to control (FIGS. 3-6) (male Cy/+ rat [3]) | Cyst volume and fibrosis compared to control (FIGS. 3-6) (male Cy/+ rat [3]; listed as compound A)
1 | O=C([O-])[C@H](O)[C@@H](O)[C@H](O)[C@H](O)CO.O=C([O-])[C@H](O)[C@@H](O)[C@H](O)[C@H](O)CO.[Ca+2] [Ca alone, reference compound] | 4.0 ± 0.9 | 0.9 ± 0.2 | 10.1 ± 1.4 | cysts are a little smaller than control animals but there appears to be a similar number | 2.8 ± 0.2 | 69 ± 18 | 11.2 ± 1.5 | 4.3 ± 0.8 | 39 ± 23 | 27 ± 11 |  | 
2 | COc1cccc([C@@H](C)NCCCc2ccccc2Cl)c1.Cl [Compound A, N-(3-[2-chlorophenyl]-propyl)-R-α-methyl-3-methoxybenzylamine HCl] | 3.1 ± 0.55 | 0.6 ± 0.1 | 9.5 ± 1.4 | noticeable decrease in cyst size and number | 2.6 ± 0.2 | 79 ± 21 | 8.2 ± 1.5 | 5.9 ± 1.4 | 131 ± 156 | 31 ± 15 | reduces cyst volume and fibrosis | magnitude was significantly greater
